What was measured:
L. plantarum = assay: Corn mash fermentation lab test: bacterial colony counts after antimicrobial addition; assay type: cell-based; settings: nisin alone 5 ppm, virginiamycin 0.5 ppm
Protocol: Evaluations were conducted at the National Corn-to-Ethanol Research Center, utilizing hops acid extracts and nisin. The samples tested and their concentrations can be found in FIG. 1 and Tables 2 and 4. The tests were conducted to evaluate the effects of binary antimicrobials on ethanol production in corn mash produced under conditions that are similar to those used in the fuel ethanol industry. Two specific effects were investigated: (1) the ability of antimicrobials to affect ethanol yield and sugar conversion in fermentations that are contaminated by lactic acid bacteria, and (2) the ability of antimicrobials to control bacterial infections compared to control bacteria-free fermentations. Three 160-gram slurries of corn flour, water and enzyme (30% w/w dry solids) were made for each treatment and control (inoculated and uninoculated). The slurries were incubated for 90 minutes at 83° C., cooled to 40° C., and then inoculated with L. plantarum. Next, the slurries were dosed with antimicrobial. The facility dosed hops acid extracts and nisin to 250-mL Erlenmeyer flasks and samples were collected at 15, 30 and 60 minutes post antimicrobial addition. After the 3 time-point samples were collected, the pH of the mash was adjusted to <5.2 by addition of 300 μl of 5-N sulfuric acid. All enzymes, nutrients, and other amendments added to the fermentation flasks were freshly prepared before use. Urea was added as a sterile 0.2-g/ml solution to a final concentration of 500 ppm (w/w) based on the nitrogen content of the urea (w/w, based on the total mass of mash). The glucoamylase enzyme (Spirizyme Excel, Novozymes) was prepared as a 0.25-g/ml solution and added at a dose of 0.066% (w/w, based on the wet weight of corn). Sterile water was added to equalize the total solids content of each treatment. […] The mass of each flask was recorded after all additions were made, then sanitized fermentation traps were inserted into each flask and they were weighed again. […] Fermentation progress was monitored by weighing the fermentation flasks periodically during the 3-day incubation (at 0, 17.5, 22.5, 42.5, 48, and 64 hrs after inoculation with yeast). The concentrations of substrates (glucose, DP2, DP3, and DP4+, where “DPx” represent glucose oligomers with “x” subunits) and products (ethanol, glycerol, lactic acid, and acetic acid) were measured by HPLC at the end of fermentation. Samples were prepared for HPLC by centrifugation to remove large solids, followed by filtration through 0.45-μm syringe filters, and acidification to pH of approximately 2 by addition of sulfuric acid to a final concentration of 0.01 N. The final pH, concentrations of total dry solids and dissolved dry solids, and the density of the beer filtrate was measured were measured after incubation for 64 hours. […]

[1] = system: yeast (Saccharomyces cerevisiae) fermentations contaminated by lactic acid bacteria (L. plantarum); assay: Corn mash fermentation lab test: ethanol and lactic acid at the end of fermentation; assay type: cell-based; settings: 64 hours, nisin alone 5 ppm, Virginiamycin 0.5 ppm
Protocol: Evaluations were conducted at the National Corn-to-Ethanol Research Center, utilizing hops acid extracts and nisin. The samples tested and their concentrations can be found in FIG. 1 and Tables 2 and 4. The tests were conducted to evaluate the effects of binary antimicrobials on ethanol production in corn mash produced under conditions that are similar to those used in the fuel ethanol industry. Two specific effects were investigated: (1) the ability of antimicrobials to affect ethanol yield and sugar conversion in fermentations that are contaminated by lactic acid bacteria, and (2) the ability of antimicrobials to control bacterial infections compared to control bacteria-free fermentations. Three 160-gram slurries of corn flour, water and enzyme (30% w/w dry solids) were made for each treatment and control (inoculated and uninoculated). The slurries were incubated for 90 minutes at 83° C., cooled to 40° C., and then inoculated with L. plantarum. Next, the slurries were dosed with antimicrobial. […] The mass of each flask was recorded after all additions were made, then sanitized fermentation traps were inserted into each flask and they were weighed again. […] Fermentation progress was monitored by weighing the fermentation flasks periodically during the 3-day incubation (at 0, 17.5, 22.5, 42.5, 48, and 64 hrs after inoculation with yeast). The concentrations of substrates (glucose, DP2, DP3, and DP4+, where “DPx” represent glucose oligomers with “x” subunits) and products (ethanol, glycerol, lactic acid, and acetic acid) were measured by HPLC at the end of fermentation. Samples were prepared for HPLC by centrifugation to remove large solids, followed by filtration through 0.45-μm syringe filters, and acidification to pH of approximately 2 by addition of sulfuric acid to a final concentration of 0.01 N. The final pH, concentrations of total dry solids and dissolved dry solids, and the density of the beer filtrate was measured were measured after incubation for 64 hours. […]

yeast = settings: fermentation mixture; cited from earlier work
Weisella confusa = settings: cited from earlier work

Substance: Virginiamycin
- Colony counts after antimicrobial addition (L. plantarum; time point 0.25 (15 minutes post addition)): 1.00E+06
- Colony counts after antimicrobial addition (L. plantarum; time point 0.5 (30 minutes post addition)): 1.35E+06
- Colony counts after antimicrobial addition (L. plantarum; time point 1 (60 minutes post addition)): 1.95E+06
- Colony counts at the end of fermentation (L. plantarum; time point 64 (64 hours)): 6.67E+04
- Average Ethanol ([1]; end of fermentation): 11.86 %, w/v
- Average Final Lactic Acid Concentration ([1]; end of fermentation): 0.38 %, w/w
- Average Final Ethanol Yield ([1]; grams ethanol per grams of dry corn, average of three flasks): 0.312 g/g
- concentration that will suppress production of ethanol (yeast): over 2 mg/L
- concentration required to inhibit growth of Weisella confusa (Weisella confusa): over 25 mg/L

— US20160081354A1, “METHOD FOR TREATMENT OF MICROORGANISMS DURING PROPAGATION, CONDITIONING AND FERMENTATION USING HOPS ACID EXTRACTS AND NISIN” (Solenis Technologies, L.P., priority 2014, published 2016)
